Laboratory results reported in patent US20160326153A1, “N-SUBSTITUTED IMINO HETEROCYCLIC COMPOUNDS” (BASF SE, priority 2013, published 2016).

Assays:
Format in all cases: in vivo
Megoura viciae = experiment: Vetch aphid (Megoura viciae) through contact or systemic means, broad bean leaf disks; settings: foliar, 120 h, read-out: mortality in comparison with untreated controls
Method: B.10 Vetch Aphid (Megoura viciae)
For evaluating control of vetch aphid (Megoura viciae) through contact or systemic means the test unit consisted of 24-well-microtiter plates containing broad bean leaf disks.
The compounds were formulated using a solution containing 75% v/v water and 25% v/v DMSO. Different concentrations of formulated compounds were sprayed onto the leaf disks at 2.5 μl, using a custom built micro atomizer, at two replications.
After application, the leaf disks were air-dried and 5-8 adult aphids placed on the leaf disks inside the microtiter plate wells. The aphids were then allowed to suck on the treated leaf disks and incubated at about 23±1° C. and about 50±5% relative humidity for 5 days. Aphid mortality and fecundity was then visually assessed.

Aedes aegypti = experiment: whole plant or invertebrate; settings: 48 h, larval mortality after 2 days, read-out: mortality in comparison with untreated controls
Method: B.11 Yellow Fever Mosquito (Aedes aegypti)
For evaluating control of yellow fever mosquito (Aedes aegypti) the test unit consisted of 96-well-microtiter plates containing 200 μl of tap water per well and 5-15 freshly hatched A. aegypti larvae.
The active compounds were formulated using a solution containing 75% (v/v) water and 25% (v/v) DMSO. Different concentrations of formulated compounds or mixtures were sprayed onto the insect diet at 2.5 μl, using a custom built micro atomizer, at two replications.
After application, microtiter plates were incubated at 28+1° C., 80+5% RH for 2 days. Larval mortality was then visually assessed.

Myzus persicae = experiment: Green peach aphid (Myzus persicae) through systemic means, artificial diet under membrane in microtiter plates; settings: 72 h, read-out: mortality in comparison with untreated controls
From the text: For evaluating control of green peach aphid (Myzus persicae) through systemic means the test unit consisted of 96-well-microtiter plates containing liquid artificial diet under an artificial membrane.
The compounds were formulated using a solution containing 75% v/v water and 25% v/v DMSO. Different concentrations of formulated compounds were pipetted into the aphid diet, using a custom built pipetter, at two replications.
After application, 5-8 adult aphids were placed on the artificial membrane inside the microtiter plate wells. The aphids were then allowed to suck on the treated aphid diet and incubated at about 23±1° C. and about 50±5% relative humidity for 3 days. Aphid mortality and fecundity was then visually assessed.

Ceratitis capitata = experiment: Mediterranean fruitfly (Ceratitis capitata) control, microtiter plates with insect diet and eggs; settings: 120 h, read-out: mortality in comparison with untreated controls
Method: B.5 Mediterranean Fruitfly (Ceratitis capitata)
For evaluating control of Mediterranean fruitfly (Ceratitis capitata) the test unit consisted of microtiter plates containing an insect diet and 50-80 C. capitata eggs.
The compounds were formulated using a solution containing 75% v/v water and 25% v/v DMSO. Different concentrations of formulated compounds were sprayed onto the insect diet at 5 μl, using a custom built micro atomizer, at two replications.
After application, microtiter plates were incubated at about 28±1° C. and about 80±5% relative humidity for 5 days. Egg and larval mortality was then visually assessed.

Nephotettix virescens = experiment: Rice green leafhopper (Nephotettix virescens) on sprayed rice seedlings; settings: 72 h, read-out: mortality in comparison with untreated controls
Method: B.7 Rice Green Leafhopper (Nephotettix virescens)
(§1) Rice seedlings were cleaned and washed 24 hours before spraying. The active compounds were formulated in 1:1 acetone:water (vol:vol), and 0.01% vol/vol surfactant (Kinetic HV) was added. Potted rice seedlings were sprayed with 5-6 ml test solution, air dried, covered with Mylar cages cages and inoculated with 10 adults. Treated rice plants were kept at about 28-29° C. and relative humidity of about 50-60%. Percent mortality was recorded after 72 hours.

Aphis craccivora = experiment: Cowpea aphid (Aphis craccivora) on sprayed cowpea plants; settings: 72 h, read-out: mortality in comparison with untreated controls
Method: B.3 Cowpea Aphid (Aphis craccivora)
The active compound is dissolved at the desired concentration in a mixture of 1:1 (vol:vol) distilled water:acetone. Surfactant (Kinetic HV) is added at a rate of 0.01% (vol/vol). The test solution is prepared at the day of use.
Potted cowpea plants were colonized with approximately 50-100 aphids of various stages by manually transferring a leaf tissue cut from infested plant 24 hours before application. Plants were sprayed after the pest population has been recorded. Treated plants are maintained on light carts at about 28° C. Percent mortality was assessed after 72 hours.

Nilaparvata lugens = experiment: Rice brown plant hopper (Nilaparvata lugens) on sprayed rice seedlings; settings: 100 ppm; after 72 hours
Method: B.9 Rice Brown Plant Hopper (Nilaparvata lugens)
as §1, with “(vol:vol)” for “(vol:vol),”, “5” for “5-6”, “Mylar” for “Mylar cages”

Structure (SMILES): CO/N=C/C(=O)ON=c1ccccn1Cc1cnc(Cl)s1 (mixture of isomers) [IA.1-4, [(E/Z)-[1-[(2-chlorothiazol-5-yl)methyl]-2-pyridylidene]amino] (2E/Z)-2-methoxyimino-acetate]
- mortality at 2500 ppm (Megoura viciae): ≥ 75%
- mortality at 2500 ppm (Aedes aegypti): ≥ 75%
- mortality at 2500 ppm (Myzus persicae): ≥ 75%

Structure (SMILES): CNC(=O)NN=c1ccccn1Cc1ccc(Cl)nc1 (mixture of isomers) [IB.1-1, 1-[(E/Z)-[1-[(6-chloro-3-pyridyl)methyl]-2-pyridylidene]amino]-3-methyl-urea]
- mortality at 2500 ppm (Megoura viciae): ≥ 75%
- mortality at 2500 ppm (Ceratitis capitata): ≥ 75%
- mortality at 2500 ppm (Aedes aegypti): ≥ 75%
- mortality at 500 ppm (Nephotettix virescens): ≥ 75%
- mortality at 2500 ppm (Myzus persicae): ≥ 75%
- mortality at 500 ppm (Aphis craccivora): ≥ 75%

Structure (SMILES): O=C(NCC(F)(F)F)NN=c1ccccn1Cc1ccc(Cl)nc1 [IB.1-3]
- mortality in comparison with untreated controls (Nilaparvata lugens): at least 75%
